From patent publication EP3153515A1, “COMPOUNDS FOR INHIBITING HEPATITIS C VIRUS, PHARMACEUTICAL COMPOSITIONS AND USES THEREOF” (priority 2014, dated 2015)

The compounds below were run against HCV NS5A replicon GT-1a (assay: HCV NS5A replicon anti-viral activity (EC50), dual-reporter Renilla luciferase, GT-1a). Settings: GT-1a replicon; read-out: Inhibitory activity against various HCV-NS5A subtypes(EC50, GT-1a to GT-6a) GT-1a.
Assay type: cell-based
From the text: The autonomous replication level of HCV in liver cells in vitro is very low, and the only animal that can be infected by HCV is chimpanzee, therefore there is no appropriate animal model currently available for preclinical pharmacodynamic study. Some researchers have transplanted human liver tissue infected with HCV in vitro into immune deficient mice to establish an in vivo mice model, but these mice are hard to raise and the model is unstable and short of normal immunologic reaction. Moreover, the model has significant difference with the pathogenic process of hepatitis C, therefore, it has not been used for animal model to assess the action of anti-HCV medicine yet. The progress of the development of anti-viral drugs for the treatment of HCV infection had been very slow because the pathogenic mechanism and life cycle of HCV were unclear before 1999 due to the lack of cell culture system for effective multiplication of HCV. But researchers managed to achieve a breakthrough in 1999 after numerous attempts. An effective cell culture model-replicon system in which HCV is capable of autonomous replication in transfected human hepatic carcinoma cell line Huh-7 had been established in that year on the basis of subgenomic HCV RNA built with genetic engineering.
The above-mentioned cell culture model-replicon system which has been widely accepted in the industry is used in this invention for ex vivo experiments and subsequent assessment of drugs based on the experiment results.
The therapeutic effect of the compounds of this invention on HCV infection can be preliminarily assessed through the following preclinical in vitro inhibitory action test and can be further confirmed in clinical trials. Other methods used in the invention are also quite familiar to professionals in this field with ordinary technical knowledge. Method for testing the anti-viral activity(EC50) in HCV NS5A replicon system: • The viral replication level in infected cells was determined by testing Renilla luciferase with the newly established dual-reporter gene replicon system. There was a good linear relation between the expression level of the reporter gene and the HCV RNA replication level and viral protein expression level. The anti-viral activity was determined for 3 replicates in 3 replicate cells at five(5) 1:2 diluted concentration gradients, with 1 to 2 positive controls. The EC50 of the compounds was calculated in the end.
The compounds of the invention, or their stereoisomers, tautomers, esterified or amidated prodrugs, or pharmaceutically acceptable salts and mixtures have been subjected to test to determined their therapeutic effects in the treatment of HCV infection. […] Moreover, the results of 6a-6ep(Ia), 6fa-6gq(Ib) and reference compounds Ref-1(BMS-790052), Ref-2(GS5885), Ref-3 in HCV-NS5 inhibition test reveal that the cyclopentanyl/hexamethyleneamino radical containing linear polypeptide compounds 6a-6ep, 6fa-6gq and reference compounds Ref-1, Ref-2, Ref-3 have good HCV inhibitory results. […] The replicons GT-1a, GT-lb, GT-2a, GT-3a, GT-4a, GT-5a and GT-6a used for the test are routine replicons commercially available in this field. Table 1: HCV NS5A replicon inhibitory activity test results of compounds (6a-6gq) of the invention

Row | Structure (SMILES) | EC50
1 | COC(=O)N[C@H](C(=O)N1CCC[C@H]1c1nc2cc(-c3csc4c(-c5ccc(-c6c[nH]c([C@@H]7CCCN7C(=O)[C@H](NC(=O)OC)c7ccccc7)n6)cc5)csc34)ccc2[nH]1)C(C)C [Ref-4, IDX-719, reference compound] | 0.022 nM

Same assay, conditions: GT-1a replicon; read-out: NS5A Inhibitory Activity (EC50 of GT-1a subtype inhibition)

Row | Structure (SMILES) | EC50
2 | COC(=O)N[C@H](C(=O)N1CCC[C@H]1c1nc2cc(-c3csc4c(-c5ccc(-c6c[nH]c([C@@H]7CCCN7C(=O)[C@H](NC(=O)OC)c7ccccc7)n6)cc5)csc34)ccc2[nH]1)C(C)C [Ref-4, IDX-719, reference compound] | 0.001 to 0.999 nM

Same assay, conditions: Hepatitis C virus, GT1A, read-out: NS5A Inhibitory Activity (EC50 of GT-1a subtype inhibition)

Row | Structure (SMILES) | EC50
3 | COC(=O)N[C@H](C(=O)N1CC2(CC2)C[C@H]1c1nc(-c2ccc3c(c2)C(F)(F)c2cc(-c4ccc5[nH]c([C@@H]6[C@H]7CC[C@H](C7)N6C(=O)[C@@H](NC(=O)OC)C(C)C)nc5c4)ccc2-3)c[nH]1)C(C)C [Ref-2, GS5885, reference compound] | 0.001 to 0.999 nM

Same assay, conditions: Hepatitis C virus, GT1A; GT-1a replicon; read-out: NS5A Inhibitory Activity (EC50 of GT-1a subtype inhibition)

Row | Structure (SMILES) | EC50
4 | COC(=O)N[C@H](C(=O)N1CC=C[C@H]1c1nc2ccc(-c3ccc(-c4ccc5nc([C@@H]6CCCN6C(=O)[C@@H](NC(=O)OC)C(C)C)[nH]c5c4)c4c3CC3(CCCCC3)C4)cc2[nH]1)C(C)C [6en] | 1 to 49.9 nM
5 | COC(=O)N[C@H](C(=O)N1CCC[C@H]1c1ncc(-c2csc3c(-c4ccc5nc([C@@H]6C=CCN6C(=O)[C@H](NC(=O)OC)c6ccccc6)[nH]c5c4)csc23)[nH]1)C(C)C [6gj] | 0.001 to 0.999 nM
6 | COC(=O)N[C@H](C(=O)N1CC=C[C@H]1c1ncc(-c2ccc(-c3ccc(-c4cnc([C@@H]5CN(C(=O)OC(C)(C)C)CN5C(=O)[C@@H](NC(=O)OC)C(C)C)[nH]4)cc3)cc2)[nH]1)C(C)C [6cw] | 0.001 to 0.999 nM
7 | CC(C)[C@H](NC(=O)N(C)C)C(=O)N1CC=C[C@H]1c1ncc(-c2ccc(-c3ccc(-c4cnc([C@@H]5CCCN5C(=O)[C@@H](NC(=O)N(C)C)C(C)C)[nH]4)cc3)cc2)[nH]1 [6cg] | 0.001 to 0.999 nM
8 | COC(=O)N[C@H](C(=O)N1CC=C[C@H]1c1ncc(-c2cccc3c(-c4ccc(-c5cnc([C@@H]6CCCN6C(=O)[C@@H](NC(=O)OC)C(C)C)[nH]5)cc4)cccc23)[nH]1)C(C)C [6eg] | 0.001 to 0.999 nM
9 | COC(=O)N[C@H](C(=O)N1CC=C[C@H]1c1nc(-c2ccc(-c3ccc(-c4cnc([C@@H]5C=CCN5C(=O)[C@@H](NC(=O)OC)C(C)C)[nH]4)cc3)cc2)c[nH]1)C(C)C [6bd] | 0.001 to 0.999 nM
10 | COC(=O)N[C@H](C(=O)N1CCC[C@H]1c1nc2ccc(-c3csc4c(-c5ccc(-c6cnc([C@@H]7C=CCN7C(=O)[C@H](NC(=O)OC)c7ccccc7)[nH]6)c(F)c5)csc34)cc2[nH]1)C(C)C [6fu] | 0.001 to 0.999 nM
11 | COC(=O)N[C@H](C(=O)N1CC=C[C@H]1c1ncc(-c2ccc3c(c2)OC(c2ccccc2)n2c-3cc3cc(-c4cnc([C@@H]5CCCN5C(=O)[C@@H](NC(=O)OC)C(C)C)[nH]4)ccc32)[nH]1)C(C)C (stereo partly drawn) [6ej] | 0.001 to 0.999 nM
12 | COC(=O)N[C@H](C(=O)N1CC=C[C@H]1c1nc2ccc(-c3cc4sc(-c5cnc([C@@H]6CCCN6C(=O)[C@@H](NC(=O)OC)C(C)C)[nH]5)cc4s3)cc2[nH]1)C(C)C [6gh] | 0.001 to 0.999 nM
13 | CC(C)[C@H](NC(=O)OC1CCCC1)C(=O)N1CC=C[C@H]1c1nc(-c2ccc(-c3ccc(-c4cnc([C@@H]5C=CCN5C(=O)[C@@H](NC(=O)OC5CCCC5)C(C)C)[nH]4)cc3)cc2)c[nH]1 [6bf] | > 50 nM
14 | COC(=O)N[C@H](C(=O)N1CC=C[C@H]1c1ncc(-c2ccc(-c3ccc(-c4cnc([C@@H]5CN(S(C)(=O)=O)CN5C(=O)[C@@H](NC(=O)OC)C(C)C)[nH]4)cc3)cc2)[nH]1)C(C)C [6cz] | 0.001 to 0.999 nM
15 | COC(=O)NC(C(=O)N1CC=C[C@H]1c1ncc(-c2ccc(-c3ccc(-c4cnc([C@@H]5CCCN5C(=O)[C@@H](NC(=O)OC)C(C)C)[nH]4)cc3)cc2)[nH]1)c1ccccc1 (stereo partly drawn) [6bx] | 0.001 to 0.999 nM
16 | CNC(=O)NC(C(=O)N1CC=C[C@H]1c1ncc(-c2ccc(-c3ccc(-c4cnc([C@@H]5CCCN5C(=O)C(NC(=O)NC)c5ccccc5)[nH]4)cc3)cc2)[nH]1)c1ccccc1 (stereo partly drawn) [6cf] | 0.001 to 0.999 nM
17 | COC(=O)NC(C(=O)N1CC=C[C@H]1c1ncc(-c2ccc(-c3ccc(-c4cnc([C@@H]5CCCN5C(=O)C(NC(=O)OC)c5ccccc5)[nH]4)cc3)cc2)[nH]1)c1ccccc1 (stereo partly drawn) [6bz] | 0.001 to 0.999 nM

Same assay, conditions: Hepatitis C virus, genotype 1a / genotype 6a, read-out: Inhibitory activity against various HCV-NS5A subtypes(EC50, GT-1a to GT-6a) GT-1a

Row | Structure (SMILES) | EC50
18 | COC(=O)N[C@H](C(=O)N1CC2(CC2)C[C@H]1c1nc(-c2ccc3c(c2)C(F)(F)c2cc(-c4ccc5[nH]c([C@@H]6[C@H]7CC[C@H](C7)N6C(=O)[C@@H](NC(=O)OC)C(C)C)nc5c4)ccc2-3)c[nH]1)C(C)C [Ref-2, GS5885, reference compound] | 0.088 nM
